Measured values as given in patent US7834141B1, “Non-mammalian GnRH analogs and uses thereof in tumor cell growth regulation and cancer therapy” (priority 2000, dated 2010).
Read-outs that look alike come from different tables or passages of the source. Where a SMILES comes first, the peptide text is derived from it.

Key:
[1] = system: MCF-7 breast cancer cells; experiment: MCF-7 breast cancer cell culture viability, Alamar Blue assay; type: cell-based, human; conditions: for inhibition of cell proliferation (cell viability, Alamar Blue): MCF-7, 24 hours of incubation, dose-response; for inhibition of cell proliferation: MCF-7, 48 hours of incubation
Method: This system allows for replicated extended activity studies.
The bio-potency studies were done with a MCF-7 breast cancer cell culture system and the cell viability as a measure of survival was assessed using the Alamar Blue assay. The percent difference in the Alamar Blue optical density (OD) readings at 570 and 600 nm in the treated and untreated controls was determined. […] A dose-response study in quadruplicate cultures was performed. Cell viability was assessed after 24 and 48 hours of incubation with the activity agent.

[2] = system: chorionic post-proline peptidase; experiment: Competitive inhibition of mammalian GnRH degradation by chorionic post-proline peptidase (enzymatic activity assay, RIA of remaining substrate); conditions: for relative potency of inhibition of chorionic post-proline peptidase activity compared to that for GnRH: substrate mammalian GnRH, GnRH = 1
Method: (§1) Using the incubation system developed for chorionic post-proline peptidase activity, the degradation of GnRH was tested. Each of these analogs (SEQ ID NO: 2, SEQ ID NO: 4 and SEQ ID NO: 7) were first studied for their ability to act as a competitive inhibitor of GnRH for chorionic post-proline peptidase activity using the enzymatic activity assay as described previously (103). […] The reaction was stopped by heating at 85° C. for 10 minutes. […] The product formed, i.e. the N-terminal nonapeptide of GnRH, was calculated by subtraction, and its inverse plotted against the inverse of the original substrate concentrations to determine the Ks of the competition. The Ki was determined by plotting the inverse of the product that formed versus the inhibitor used.

[3] = system: GnRH receptors on the cells of MCF-7 breast cancer cells; experiment: Competitive binding of I^125-D-Arg(6)-Chicken II GnRH-aza-Gly(10)-amide to MCF-7 breast cancer cells; design: species or system human; conditions: for competitive inhibition of I^125-D-Arg(6)-Chicken II GnRH-aza-Gly(10)-amide binding (rank of potency): MCF-7 cells, 24 hours at room temperature; for receptor potency (in words): receptor test not given
Method: GnRH receptors on the cells of MCF-7 breast cancer cells were studied. The cells were plated on 96 wells and grown to confluency in base medium (M3D:Fetal Bovine Serum [9:1]). Prior to the experiment the cells were down shifted to M3D:Fetal Bovine Serum [99:1] and then to serum-free medium. […] Addition of enzyme inhibitors of the endogenous post-proline peptidase and other peptidases were used as well as agents for receptor stabilization. Receptor bound label was separated by centrifugation. The binding of the non-mammalian GnRH analog and its ability to regulate the tumor cells' GnRH receptor was compared. […] This was followed by Buserilin. […] This indicated the high innate affinity of this isoform of GnRH for the tumor GnRH receptor. It is believed by Applicants that the same or similar results could be obtained using other non-mammalian GnRH isomers or analogs with similar amino acid structure as Chicken II GnRH such as but not limited to Salmon GnRH, Herring GnRH, Catfish GnRH, or Dogfish GnRH.

[4] = system: MCF-7 breast cancer cells; experiment: Degradation of GnRH and analogs by tumor tissue cells, with or without peptidase inhibitors; type: in vitro ADME, human
Excerpt: Post-Proline Peptidase Stability Studies: As mentioned earlier, the post-proline peptidase is important in actively degrading peptides that contain a proline residue. GnRH is such a peptide. Initially the enzymatic activity of the tumor cell was studied. Tumor tissue cells and their spent media were studied for enzyme activity. In particular, examination was made for the degradation of GnRH both with and without specific post-proline and endopeptidase activity inhibitors to determine the specificity of the tumor enzymatic activity.
Chorionic post-proline peptidase is a peptidase with high specificity for the degradation of GnRH at the proline-glycine bond, but can also degrade other GnRH species containing this bond.

[5] = system: chorionic post-proline peptidase
Method: as §1

Which results are given for `CCNC(=O)[C@@H]1CCCN1C(=O)[C@H](CCCNC(=N)N)NC(=O)[C@H](CC(C)C)NC(=O)[C@@H](COC(C)(C)C)NC(=O)[C@H](Cc1ccc(O)cc1)NC(=O)[C@H](CO)NC(=O)[C@H](Cc1c[nH]c2ccccc12)NC(=O)[C@H](Cc1cnc[nH]1)NC(=O)[C@@H]1CCC(=O)N1` [Buserilin]?
inhibition of cell proliferation (cell viability, Alamar Blue) [1]: totally inactive; degradation by chorionic post-proline peptidase (in words) [2]: competitively inhibited the degradation of mammalian GnRH

`N=C(N)NCCC[C@@H](NC(=O)[C@H](Cc1c[nH]cn1)NC(=O)[C@H](CO)NC(=O)[C@H](Cc1c[nH]c2ccccc12)NC(=O)[C@H](Cc1c[nH]cn1)NC(=O)[C@@H]1CCC(=O)N1)C(=O)N[C@@H](Cc1c[nH]c2ccccc12)C(=O)N[C@@H](Cc1ccc(O)cc1)C(=O)N1CCC[C@H]1C(=O)NNC(N)=O` [D-Arg(6)-Chicken II GnRH-aza-Gly(10)-amide] (HELM PEPTIDE1{[Glp].H.W.S.H.[dR].W.Y.P.[O=C(NN[*:1])[*:2]].[am]}$$$$V2.0) was tested. Which “inhibition of cell proliferation (cell viability, Alamar Blue)” value [1] did it give?
The value was “positive dose-related activity”.

And the “inhibition of cell proliferation at 10^−5 M” value ([1]; MCF-7, 24 hours, 10^−5 M)?
Its value is “markedly active”.

And the “inhibition of cell proliferation” value [1]?
Its value is “equally as potent as at 24 hours”.

What about the “degradation by chorionic post-proline peptidase (in words)” value (shortened to “degradation … (in words)”) [2] of the same compound?
The value was “resistant to degradation”.

What about the “binding of I^125-labelled analog to MCF-7 breast cancer cells” value ([3]; 24 hours of incubation, no exogenous GnRH) of the same compound?
The value was “specifically bound the MCF-7 breast cancer cells”.

What about the “competitive inhibition of I^125-D-Arg(6)-Chicken II GnRH-aza-Gly(10)-amide binding (rank of potency)” value [3] of the same compound?
Its value is “greatest potency”.

And the “receptor potency (in words)” value [3]?
Its value is “increased receptor potency”.

How did the “inhibition of cell proliferation (cell viability, Alamar Blue)” value [1] turn out when `CCNC(=O)[C@@H]1CCCN1C(=O)[C@H](CCCNC(=N)N)NC(=O)[C@H](CC(C)C)NC(=O)[C@@H](CC(C)C)NC(=O)[C@H](Cc1ccc(O)cc1)NC(=O)[C@H](CO)NC(=O)[C@H](Cc1c[nH]c2ccccc12)NC(=O)[C@H](Cc1c[nH]cn1)NC(=O)[C@@H]1CCC(=O)N1` [Leuprolide] was run?
Its value is “totally inactive”.

How did the “inhibition of the degradation of mammalian GnRH in tumor cell extracts” value ([4]; specific inhibitors of post-proline peptidase) turn out when `CC[C@H](C)[C@H](N)C1=N[C@H](C(=O)N[C@@H](CC(C)C)C(=O)N[C@H](CCC(=O)O)C(=O)N[C@H](C(=O)N[C@H]2CCCCNC(=O)[C@H](CC(N)=O)NC(=O)[C@@H](CC(=O)O)NC(=O)[C@H](Cc3cnc[nH]3)NC(=O)[C@@H](Cc3ccccc3)NC(=O)[C@H]([C@@H](C)CC)NC(=O)[C@@H](CCCN)NC2=O)[C@@H](C)CC)CS1` [bacitracin] (HELM PEPTIDE1{[CC[C@H](C)[C@H](N)C1=N[C@H](C(=O)[*:2])CS1].L.[dE].I.K.[NCCC[C@@H](N[*:1])C(=O)[*:2]].I.[dF].H.[dD].N}$PEPTIDE1,PEPTIDE1,5:R3-11:R2$$$V2.0) was run?
Its value is “inhibited”.

Antide was tested. Which “degradation … (in words)” value [2] did it give?
The value was “degraded with reduced activity”.

And the “potency as competitor for chorionic post-proline peptidase compared to GnRH (in words)” value [2]?
Its value is “three fold less potent than GnRH”.

What about the “relative potency of inhibition of chorionic post-proline peptidase activity compared to that for GnRH” value [2] of the same compound?
The value was 0.6.

Which “receptor potency (in words)” value [3] does the source give for Im-btl-D-His(6)-GnRH-ethylamide here?
The value was “reduced receptor potency”.

With “Mammalian GnRH: mammalian gonadotropin releasing hormone decapeptide” as the compound, how does the “inhibition of cell proliferation” value [1] read?
The value was “totally ineffective”.

And the “degradation … (in words)” value [5]?
The value was “actively degraded”.

And the “competitive inhibition of I^125-D-Arg(6)-Chicken II GnRH-aza-Gly(10)-amide binding (rank of potency)” value [3]?
Its value is “weakest competitor”.

And the “degradation of mammalian GnRH by the tumor tissue cells” value ([4]; after overnight incubation)?
The value was about 100%.

Which “relative potency of inhibition of chorionic post-proline peptidase activity compared to that for GnRH” value [2] does the source give for OH-Pro(9)-GnRH here?
The value was 1.5.

Which “degradation … (in words)” value [2] does the source give for des-Gly(10), D-Trp(6)-GnRH ethylamide here?
Its value is “competitively inhibited the degradation of mammalian GnRH”.

With des-Gly(10)-D-Leu(6)-GnRH ethylamide as the compound, how does the “degradation … (in words)” value [2] read?
Its value is “competitively inhibited the degradation of mammalian GnRH”.

With des-Gly(10)-GnRH ethylamide as the compound, how does the “degradation … (in words)” value [2] read?
Its value is “competitively inhibited the degradation of mammalian GnRH”.
